Measurements published in US5329012A, “Bis(acyloxmethyl)imidazole compounds” (The Research Foundation of State University of New York, priority 1987, dated 1994).
Where two headings read alike, the source gives them in different places.

System: lymphocytic leukemia P-388
Assay: P-388 lymphocytic leukemia test in mice (NCI Protocol 1.200)
Format: in vivo, CDF1 female mice
Details: for Tox.Day Surv. (survivors/animals tested): day 5; for response vs control in vivo at 12.5 mg/kg / response vs control in vivo at 25 mg/kg / response vs control in vivo at 50 mg/kg / response vs control in vivo at 100 mg/kg / response vs control in vivo at 200 mg/kg / response vs control in vivo at 400 mg/kg: Mus musculus, P388, 120 h, read-out: % T/C (mean survival time)
Protocol: Various bis(acyloxymethyl)imidazole derivatives prepared in accord with Examples I-XVIII and designated Samples A-J, were tested for anti-tumor activity in vivo using the lymphocytic leukemia P-388 test procedure in mice with Samples A and B representing controls. The test system was that employed by the National Cancer Institute (NCI) for the preliminary screening of anti-tumor agents, according to Protocol 1.200 (Cancer Chemo. Reports Part 3, Vol. 3, No. 2, page 9; 1972). In the study ascitic fluid containing 6×10^6 cells was implanted in the peritoneal cavity of CDF1 female mice. Each imidazole was given in a single injection, at four to six different dose levels (5-6 mice/dose level) daily for five (5) days beginning 24 hours after tumor innoculation. The control animals received saline. Test criteria was in accord with NCI protocol as follows: toxicity day evaluations were carried out on day 5 (number of survivors/number of animals tested); % T/C data was calculated through mean survival time [% T/C=(MST treated/MST control)x100, where MST=mean survival time]; BWD refers to the body weight difference (grams) of test animals compared to control animals; KE refers to the log of the tumor cell population at the end of treatment relative to tumor cell population before treatment.
Table I sets out the identification of the compounds corresponding to the samples used in this and further Examples. Table II sets out the results of the P-388 tests.

[1] = 12.5 mg/kg/inj, daily for 5 days
[2] = 100 mg/kg/inj, daily for 5 days
[3] = 200 mg/kg/inj, daily for 5 days
[4] = 400 mg/kg/inj, daily for 5 days

Compound | BWD (body weight difference vs control) [1] [g] | KE (log tumor cell population end vs before treatment) [1] | BWD (body weight difference vs control) (25 mg/kg/inj, daily for 5 days) [g] | KE (log tumor cell population end vs before treatment) (25 mg/kg/inj, daily for 5 days) | BWD (body weight difference vs control) (50 mg/kg/inj, daily for 5 days) [g] | KE (log tumor cell population end vs before treatment) (50 mg/kg/inj, daily for 5 days) | Tox.Day Surv. (survivors/animals tested) (50 mg/kg/inj, daily for 5 days) | BWD (body weight difference vs control) [2] [g] | KE (log tumor cell population end vs before treatment) [2] | Tox.Day Surv. (survivors/animals tested) [2] | BWD (body weight difference vs control) [3] [g] | KE (log tumor cell population end vs before treatment) [3] | Tox.Day Surv. (survivors/animals tested) [3] | response vs control in vivo at 50 mg/kg [%] | response vs control in vivo at 100 mg/kg [%] | response vs control in vivo at 200 mg/kg [%] | BWD (body weight difference vs control) [4] [g] | KE (log tumor cell population end vs before treatment) [4] | response vs control in vivo at 12.5 mg/kg [1] [%] | response vs control in vivo at 25 mg/kg (25 mg/kg/inj, daily for 5 days) [%] | further results
CNC(=O)OCc1ncn(-c2ccccc2)c1COC(=O)NC [A, 1-phenyl-4,5-bis(N-methylcarbonyloxymethyl)imidazole, reference compound] | -0.4 | -1.55 | 0.2 | -1.61 | -0.8 | -1.52 | 5/5 | -0.4 | -1.52 | 5/5 | -1.2 | -1.55 | 5/5 | 101 | 101 | 99 | – | – | – | – | Tox.Day Surv. (survivors/animals tested) [1]: 5/5; Tox.Day Surv. (survivors/animals tested) (25 mg/kg/inj, daily for 5 days): 5/5; response vs control in vivo at 12.5 mg/kg: 99%; response vs control in vivo at 25 mg/kg: 95%
CC(C)NC(=O)OCc1ncn(-c2ccccc2)c1COC(=O)NC(C)C [B, 1-phenyl-4,5-bis[N-(2-propyl)carbonyloxymethyl]-imidazole, reference compound] | -0.4 | -1.53 | -0.1 | -1.53 | 0.8 | -1.62 | – | 0.6 | -1.69 | – | 0.2 | toxic | – | – | – | – | -2.3 | toxic | 103 | 103 | response vs control in vivo at 50 mg/kg (50 mg/kg/inj, daily for 5 days): 97%; response vs control in vivo at 100 mg/kg [2]: 91%; response vs control in vivo at 200 mg/kg [3]: 90%; response vs control in vivo at 400 mg/kg [4]: 90%
CNC(=O)OCc1nc(SC)n(-c2ccccc2)c1COC(=O)NC [C, 1-phenyl-2-methylthio-4,5-bis-(N-methylcarbonyloxymethyl)imidazole] | – | – | – | – | -1.4 | 0.60 | 5/5 | -1.6 | 0.17 | 5/5 | -3.0 | 1.46 | 5/5 | 141 | 133 | 156 | -5.2 | toxic | – | – | Tox.Day Surv. (survivors/animals tested) [4]: 4/5
CSc1nc(COC(=O)NC(C)C)c(COC(=O)NC(C)C)n1-c1ccccc1 [D, 1-phenyl-2-methylthio-4,5-bis-[N-(2-propyl)carbonyloxymethyl]imidazole] | -0.2 | -1.42 | 0.6 | – | 0.3 | -1.64 | – | -2.0 | -1.62 | – | -2.8 | -1.64 | – | – | – | – | -4.8 | -1.52 | 111 | 101 | response vs control in vivo at 50 mg/kg (50 mg/kg/inj, daily for 5 days): 95%; response vs control in vivo at 100 mg/kg [2]: 97%; response vs control in vivo at 200 mg/kg [3]: 90%; response vs control in vivo at 400 mg/kg [4]: 100%
